For orientation: melting point means the temperature, or range, at which the solid turns liquid. In turn, `Fc1ccc(N2CCN(c3nc(N4CCOCC4)c(F)c(N4CCOCC4)n3)CC2)cc1` [Compound 96, 5-fluoro-2-[4-(4-fluorophenyl)piperazin-1-yl]-4,6-dimorpholinopyrimidine] showed a melting point of 195 to 198 °C.

`c1cnc(N2CCN(c3nc(N4CCOCC4)cc(N4CCOCC4)n3)CC2)nc1` [Compound 14, 4,6-dimorpholino-2-[4-(pyrimidin-2-yl)piperazin-1-yl]pyrimidine] showed a melting point of 212 to 215 °C.

With `Cc1ccccc1N1CCN(c2nc(N3CCN(c4ccccc4F)CC3)nc(N3CCOCC3)c2F)CC1` [Compound 127, 5-fluoro-2-[4-(2-fluorophenyl)piperazin-1-yl]-4-[4-(2-methylphenyl)piperazin-1-yl]-6-morpholinopyrimidine], the melting point lay within 71 to 72 °C.

`OC1(c2ccccc2)CCN(c2nc(N3CCOCC3)c(F)c(N3CCOCC3)n2)CC1` [Compound 116, 5-fluoro-2-(4-hydroxy-4-phenylpiperidin-1-yl)-4,6-dimorpholinopyrimidine] came in with a melting point of 177 to 180 °C.

As for `O=Cc1c(N2CCOCC2)nc(N2CCN(c3ccccc3)CC2)nc1N1CCOCC1` [Compound 142, 5-formyl-4,6-dimorpholino-2-(4-phenylpiperazin-1-yl)pyrimidine], the melting point fell in the range of 162 to 163 °C.

The compound `C1=C(c2ccccc2)CCN(c2nc(N3CCOCC3)cc(N3CCOCC3)n2)C1` [Compound 40, 4,6-dimorpholino-2-[4-phenyl (1,2,5,6-tetrahydropyridin-1-yl)]pyrimidine] had a melting point of 157 to 160 °C.

As for `CN1CCN(c2nc(N3CCN(c4ccccc4F)CC3)nc(N3CCOCC3)c2F)CC1` [Compound 185, 5-fluoro-2-[4-(2-fluorophenyl)piperazin-1-yl]-4-(4-methylpiperazin-1-yl)-6-morpholinopyrimidine], the melting point fell in the range of 128 to 129 °C.

With `c1ccc(C2CN(c3cc(N4CCOCC4)nc(N4CCOCC4)n3)CCN2)cc1` (stereo not shown) [Compound 17, 2,4-dimorpholino-6-(3-phenylpiperazin-1-yl)pyrimidine], the melting point is 181 to 185 °C.

As to `Clc1c(N2CCOCC2)nc(N2CCN(c3ccccc3)CC2)nc1N1CCOCC1` [Compound 130, 5-chloro-4,6-dimorpholino-2-(4-phenylpiperazin-1-yl)pyrimidine], the melting point lay within 131 to 133 °C.

With `CC(=O)C1(c2ccccc2)CCN(c2nc(N3CCOCC3)cc(N3CCOCC3)n2)CC1` [Compound 38, 2-(4-acetyl-4-phenylpiperidin-1-yl)-4,6-dimorpholinopyrimidine], the melting point lay within 115 to 118 °C.

As for `CN(C)c1nc(N2CCOCC2)c(F)c(N2CCN(c3ccc(Cl)cc3)CC2)n1` [Compound 113, 4-[4-(4-chlorophenyl)piperazin-1-yl]-2-dimethylamino-5-fluoro-6-morpholinopyrimidine], the melting point was determined as 152 °C.

In the case of `COc1c(N2CCOCC2)nc(N2CCOCC2)nc1N1CCN(c2ccccc2)CC1` [Compound 50, 5-methoxy-2,4-dimorpholino-6-(4-phenylpiperazin-1-yl)pyrimidine], the melting point is 118 to 120 °C.

In turn, `COc1ccc(/C=C/c2nc(N(C)C)c(N)c(N3CCOCC3)n2)cc1` [Compound 138, 5-amino-4-dimethylamino-2-[2-(4-methoxyphenyl)vinyl]-6-morpholinopyrimidine] showed a melting point of 130 to 133 °C.

As to `Nc1c(N2CCOCC2)nc(/C=C/c2ccc(F)cc2)nc1N1CCOCC1` [Compound 135, 5-amino-2-[2-(4-fluorophenyl)vinyl]-4,6-dimorpholinopyrimidine], the melting point lay within 193 to 195 °C.

As to `Clc1ccccc1N1CCN(c2nc(N3CCOCC3)cc(N3CCOCC3)n2)CC1` [Compound 26, 2-[4-(2-chlorophenyl)piperazin-1-yl]-4,6-dimorpholinopyrimidine], the melting point amounted to 156 °C.

Regarding `Cc1c(N2CCOCC2)nc(N2CCOCC2)nc1N1CCN(c2ccccc2)CC1` [Compound 45, 5-methyl-2,4-dimorpholino-6-(4-phenylpiperazin-1-yl)pyrimidine], the melting point fell in the range of 149 to 152 °C.

The record behind these values is patent US8563715B2, “Pyrimidine derivative having cell protecting effect and uses thereof” (Zenyaku Kogyo Kabushikikaisha, priority 2008, dated 2013).
